Reference: patent publication US20090192209A1, “Extended treatment of tumors through vessel occlusion with light activated drugs” (Light Sciences Oncology, Inc., priority 2004, published 2009)

Experiments:
[1] = system: R1 rhabdomyosarcoma tumor fragment implanted in liver; test: PDT with single implanted LED light source proximal to tumor-feeding vessel in rat liver tumor model; format: in vivo, WAG/Rij rats
Protocol: A study was carried out to explore whether placement of a single light source in proximity to an identified tumor-feeding vessel could result in effective treatment of larger volumes of the organ in which there was neoplasia than might be achieved using direct PDT on tumor tissue itself.
Methods. The liver of each of 20 WAG/Rij rats was implanted with a R1 rhabdomyosarcoma tumor fragment. […] A 10×1.5 mm LED light source was implanted in the liver proximal to an upstream feeding vessel. LEDs were placed at a distance ≧5 mm from the tumor to ensure that the tumor itself was outside the direct illumination effect of the PDT. After a 10-minute drug-light interval, a light dose totaling 200 J/cm was administered. Animals were sacrificed at various time points, up to 10 days post treatment, and the extent and the mechanism of cell death was evaluated histologically using TUNEL [TdT-mediated dUTP-X nick end labeling] and EM [Electron Microscopy].

[2] = system: targeted tumors, including liver metastases arising from various primaries; conditions: clinical tests, PDT; Cancer 2003; 98:1767-71; cited from earlier work

C=Cc1c(C)c2cc3nc(c(CC(=O)N[C@@H](CC(=O)O)C(=O)O)c4[nH]c(cc5nc(cc1[nH]2)C(C)=C5CC)c(C)c4C(=O)O)[C@@H](CCC(=O)O)[C@@H]3C [Talaporfin Sodium]
cell death in tumors implanted downstream from the targeted vessel (TUNEL, EM) ([1]; 5 mg/kg i.v. tail vein, 10-minute drug-light interval, 200 J/cm, LED ≧5 mm from tumor): cell death was consistently induced by a predominantly apoptotic mechanism | cell death in tumors similarly close to light source but vascularized by vessels other than the one targeted ([1]; 5 mg/kg i.v., 200 J/cm): no cell death was observed | time cell death first observed after PDT (TUNEL) ([1]; 5 mg/kg i.v., 200 J/cm, tumors downstream from targeted vessel): 2 days | closure of larger blood vessels / extended PDT effect ([1]; dosed at 2 mg/kg or less): not sufficient to close larger blood vessels | extent of PDT treatment effect ([1]; dosed at 2 mg/kg or less): restricted to the immediate vicinity of the illumination | objective response rates in targeted tumors [2]: 33-50%
